Results published in ChEMBL document CHEMBL4765295, “Synthesis, pharmacological profile and 2D-QSAR studies of curcumin-amino acid conjugates as potential drug candidates” (Eur J Med Chem, 2020).
Where “and” joins values, the source holds several entries; their conditions need not be identical. Equal values may be shown once.

Experiments:
[1] = test system: Rattus norvegicus; experiment: Anti-inflammatory activity in Wistar rat assessed as inhibition of carrageenan-induced paw edema at 10 mg/kg, ip pretreated for 1 hr followed by carrageenan challenge and measured after 4 hr relative to control (reference value: 0.00 +/-0.4 %); assay type: functional; conditions: time 5 hrs
[2] = test system: Peritoneal macrophage; experiment: Antiinflammatory activity in […] mouse Peritoneal macrophages assessed as inhibition of LPS-induced NO production at 10 uM preincubated for 1 hr followed by LPS stimulation measured after 24 hrs by Griess method relative to control (reference value: 0.0 %); assay type: functional; set-up: scale not given: the % may be the effect or the level left; conditions: time 25 hrs
[3] = test system: Peritoneal macrophage; experiment: Antiinflammatory activity in […] mouse Peritoneal macrophages assessed as reduction in LPS-induced NO production by measuring reduction in stimulation index at 10 uM preincubated for 1 hr followed by LPS stimulation measured after 24 hrs by Griess method (reference value: 27.31 +/- 2.56 uM); assay type: functional; conditions: time 25 hrs
[4] = test system: Candida albicans; experiment: Antifungal activity against Candida albicans incubated for 18 to 24 hrs by CLSI method; assay type: functional; conditions: time 18-24 hrs
[5] = test system: Splenocyte; experiment: Immunomodulatory activity in Swiss albino mouse splenocytes assessed as cell viability at 10 uM by measuring stimulation index incubated for 72 hrs in presence of mitogenic stimulus phytohaemagglutinin by MTT assay (reference value: 1.00 +/- 0.24); assay type: functional
[6] = test system: Splenocyte; experiment: Immunomodulatory activity in Swiss albino mouse splenocytes assessed as cell viability at 10 uM by measuring inhibition of stimulation index incubated for 72 hrs in presence of mitogenic stimulus phytohaemagglutinin by MTT assay relative to indomethacin; assay type: functional; conditions: read-out: Activity
[7] = test system: Rattus norvegicus; experiment: Anti-inflammatory activity in Wistar rat assessed as inhibition of carrageenan-induced paw edema at 10 mg/kg, ip pretreated for 1 hr followed by carrageenan challenge and measured after 2 hr relative to control (reference value: 0.00 +/-0.03 %); assay type: functional; conditions: time 3 hrs
[8] = test system: PC-3; experiment: Antiproliferative activity against human PC3 cells assessed as inhibition of cell growth after 72 hrs by MTT assay; assay type: functional, cell-based; conditions: PC-3, 72 h
[9] = test system: Rattus norvegicus; experiment: Antiinflammatory activity in Wistar rat model of carrageenan-induced paw edema assessed as reduction in thickness of paw edema at 10 mg/kg, ip pretreated for 1 hr followed by carrageenan challenge and measured after 4 hrs (reference value: 1.40 +/-0.10 mm); assay type: functional; conditions: time 5 hrs
[10] = test system: A549; experiment: Antiproliferative activity against human A549 cells assessed as inhibition of cell growth after 72 hrs by MTT assay; assay type: functional, cell-based; conditions: A549, 72 h
[11] = test system: Rattus norvegicus; experiment: Anti-inflammatory activity in Wistar rat assessed as inhibition of carrageenan-induced paw edema at 10 mg/kg, ip pretreated for 1 hr followed by carrageenan challenge and measured after 3 hr relative to control (reference value: 0.00 +/-0.1 %); assay type: functional; conditions: time 4 hrs
[12] = test system: Rattus norvegicus; experiment: Antiinflammatory activity in Wistar rat model of carrageenan-induced paw edema assessed as reduction in thickness of paw edema at 10 mg/kg, ip pretreated for 1 hr followed by carrageenan challenge and measured after 1 hr (reference value: 2.41 +/-0.05 mm); assay type: functional; conditions: time 1 hr after carrageenan
[13] = test system: Salmonella typhimurium; experiment: Antibacterial activity against Salmonella typhimurium ATCC 19430 incubated for 18 hrs by agar dilution assay; assay type: functional, Salmonella enterica subsp. enterica serovar Typhimurium; conditions: Salmonella enterica
[14] = test system: Rattus norvegicus; experiment: Anti-inflammatory activity in Wistar rat assessed as inhibition of carrageenan-induced paw edema at 10 mg/kg, ip pretreated for 1 hr followed by carrageenan challenge and measured after 1 hr relative to control (reference value: 0.00 +/-0.02 %); assay type: functional; conditions: time 2 hrs
[15] = test system: Pseudomonas aeruginosa; experiment: Antibacterial activity against Pseudomonas aeruginosa ATCC 27853 incubated for 18 hrs by agar dilution assay; assay type: functional
[16] = test system: MCF7; experiment: Antiproliferative activity against human MCF7 cells assessed as inhibition of cell growth after 72 hrs by MTT assay; assay type: functional, cell-based; conditions: MCF7, 72 h
[17] = test system: Rattus norvegicus; experiment: Anti-inflammatory activity in Wistar rat assessed as inhibition of carrageenan-induced paw edema at 10 mg/kg, ip pretreated for 1 hr followed by carrageenan challenge and measured after 4 hr relative to indomethacin; assay type: functional; conditions: time 5 hrs
[18] = test system: Staphylococcus aureus; experiment: Antibacterial activity against Staphylococcus aureus ATCC 25923 incubated for 18 hrs by agar dilution method; assay type: functional
[19] = test system: Streptococcus pyogenes; experiment: Antibacterial activity against Streptococcus pyogenes ATCC 19615 incubated for 18 hrs by agar dilution method; assay type: functional
[20] = test system: Rattus norvegicus; experiment: Antiinflammatory activity in Wistar rat model of carrageenan-induced paw edema assessed as reduction in thickness of paw edema at 10 mg/kg, ip pretreated for 1 hr followed by carrageenan challenge and measured after 3 hrs (reference value: 1.79 +/-0.07 mm); assay type: functional; conditions: time 4 hrs
[21] = test system: Rattus norvegicus; experiment: Antiinflammatory activity in Wistar rat model of carrageenan-induced paw edema assessed as reduction in thickness of paw edema at 10 mg/kg, ip pretreated for 1 hr followed by carrageenan challenge and measured after 24 hrs (reference value: 0.83 +/-0.08 mm); assay type: functional; conditions: time 25 hrs
[22] = test system: Rattus norvegicus; experiment: Anti-inflammatory activity in Wistar rat assessed as inhibition of carrageenan-induced paw edema at 10 mg/kg, ip pretreated for 1 hr followed by carrageenan challenge and measured after 24 hr relative to control (reference value: 0.00 +/-0.3 %); assay type: functional; conditions: time 25 hrs
[23] = test system: Rattus norvegicus; experiment: Antiinflammatory activity in Wistar rat model of carrageenan-induced paw edema assessed as reduction in thickness of paw edema at 10 mg/kg, ip pretreated for 1 hr followed by carrageenan challenge and measured after 2 hrs (reference value: 2.06 +/-0.09 mm); assay type: functional; conditions: time 3 hrs

SMILES	MIC [4]	IC50 [8] [µM]	IC50 [10] [µM]	MIC [13]	MIC [15]	IC50 [16] [µM]	MIC [18]	MIC [19]	inhibition in vivo at 10 mg/kg [1] [%]	Activity [2] [%]	Activity [3] [µM]	Activity_index [5]	viability at 10 µM [6] [%]	inhibition in vivo at 10 mg/kg [7] [%]	Activity [9] [mm]	inhibition in vivo at 10 mg/kg [11] [%]	Activity [12] [mm]	inhibition in vivo at 10 mg/kg [14] [%]	inhibition in vivo at 10 mg/kg [17] [%]	Activity [20] [mm]	other results
COc1cc(/C=C/C(=O)/C=C(O)/C=C/c2ccc(OC(=O)[C@@H](N)Cc3ccccc3)c(OC)c2)ccc1OC(=O)[C@@H](N)Cc1ccccc1.Cl.Cl	0.5 µg/mL and 0.68 µM	74.4	33.5	0.125 µg/mL and 0.17 µM	0.5 µg/mL and 0.68 µM	11.5	0.25 µg/mL and 0.34 µM	0.5 µg/mL and 0.68 µM	84	39.74	16.46	1.41	85.6	51	0.22	63	1.29	46	97	0.66	Activity [21]: 0.66 mm; inhibition in vivo at 10 mg/kg [22]: 20%; Activity [23]: 1.01 mm
COc1cc(/C=C/C(=O)/C=C(O)/C=C/c2ccc(OC(=O)[C@@H](N)C(C)C)c(OC)c2)ccc1OC(=O)[C@@H](N)C(C)C.Cl.Cl	0.125 µg/mL and 0.195 µM	34.6	20.4	0.125 µg/mL and 0.195 µM	0.25 µg/mL and 0.391 µM	10.4	0.25 µg/mL and 0.391 µM	0.125 µg/mL and 0.195 µM	46	24.37	20.65	2.05	59	50	0.75	48	0.97	60	53	0.93	Activity [21]: 0.71 mm; inhibition in vivo at 10 mg/kg [22]: 14%; Activity [23]: 1.4 mm

Second part, led by results:

MIC [4]	IC50 [8] [µM]	IC50 [10] [µM]	MIC [13]	MIC [15]	IC50 [16] [µM]	MIC [18]	MIC [19]	SMILES	inhibition in vivo at 10 mg/kg [1] [%]	Activity [2] [%]	Activity [3] [µM]	Activity_index [5]	viability at 10 µM [6] [%]	inhibition in vivo at 10 mg/kg [7] [%]	Activity [9] [mm]	inhibition in vivo at 10 mg/kg [11] [%]	Activity [12] [mm]	inhibition in vivo at 10 mg/kg [14] [%]	inhibition in vivo at 10 mg/kg [17] [%]	Activity [20] [mm]	other results
0.125 µg/mL and 0.187 µM	34.4	20.9	0.125 µg/mL and 0.187 µM	0.25 µg/mL and 0.374 µM	10.2	0.25 µg/mL and 0.374 µM	0.5 µg/mL and 0.749 µM	CC[C@H](C)[C@H](N)C(=O)Oc1ccc(/C=C/C(=O)/C=C(O)/C=C/c2ccc(OC(=O)[C@@H](N)[C@@H](C)CC)c(OC)c2)cc1OC.Cl.Cl	76	35.45	17.63	1.59	76	36	0.34	47	1.61	33	87	0.94	Activity [21]: 0.58 mm; inhibition in vivo at 10 mg/kg [22]: 30%; Activity [23]: 1.31 mm
0.125 µg/mL and 0.179 µM	34.4	21.1	0.125 µg/mL and 0.179 µM	0.5 µg/mL and 0.717 µM	9.15	0.25 µg/mL and 0.358 µM	0.5 µg/mL and 0.717 µM	COc1cc(/C=C/C(=O)/C=C(O)/C=C/c2ccc(OC(=O)[C@@H](N)CCC(N)=O)c(OC)c2)ccc1OC(=O)[C@@H](N)CCC(N)=O.Cl.Cl	42	20.35	21.75	2.22	54.5	45	0.81	43	1.29	46	48	1.02	Activity [21]: 0.57 mm; inhibition in vivo at 10 mg/kg [22]: 31%; Activity [23]: 1.14 mm
1 µg/mL and 1.71 µM	21.7	22.2	0.25 µg/mL and 0.428 µM	0.5 µg/mL and 0.857 µM	9.79	0.125 µg/mL and 0.214 µM	0.25 µg/mL and 0.428 µM	COc1cc(/C=C/C(=O)/C=C(O)/C=C/c2ccc(OC(=O)C(C)N)c(OC)c2)ccc1OC(=O)C(C)N.Cl.Cl (stereo not given)	84	27.69	19.75	1.91	63.2	54	0.22	55	1.11	54	97	0.81	Activity [21]: 0.6 mm; inhibition in vivo at 10 mg/kg [22]: 28%; Activity [23]: 0.94 mm
